Laboratory results taken from patent publication US20100173917A1, “UREA DERIVATIVES AS ABL MODULATORS” (Ambit Biosciences Corporation, priority 2003, published 2010).

What was measured:
ABL1(DKIN) = molecular target: T1, ABL1(DKIN) (Homo sapiens, UniProt P00519); assay: Phage-display competition binding assay (Kd), ABL1(DKIN)
T1 construct: ABL1(DKIN); fused on or other part: Fused to T7 bacteriophage particles (phage display)
Source text: (§1) The term “ND” represents non-determined values.

ABL1(E255K) = molecular target: T2, ABL1(E255K) (Homo sapiens, UniProt P00519, E255K); assay: Phage-display competition binding assay (Kd), ABL1(E255K)
T2 construct: made in house; host or cells: T7 bacteriophage display
Source text: as §1

ABL1(T3151) = molecular target: T3, ABL1(T3151) (Homo sapiens, UniProt P00519, T315I); assay: Phage-display competition binding assay (Kd), ABL1(T3151)
T3 construct: made in house; host or cells: T7 bacteriophage display
Source text: as §1

ABL1(E274K) = molecular target: T4, ABL1(E274K) (Homo sapiens, UniProt P00519, E255K); assay: Phage-display competition binding assay (Kd), ABL1(E274K)
T4 construct: made in house; host or cells: T7 bacteriophage display
Source text: as §1

ABL1(Y253F) = molecular target: T5, ABL1(Y253F) (Homo sapiens, UniProt P00519, Y253F); assay: Phage-display competition binding assay (Kd), ABL1(Y253F)
T5 construct: made in house; host or cells: T7 bacteriophage display
Source text: as §1

ABL1(H396P) = molecular target: T6, ABL1(H396P) (Homo sapiens, UniProt P00519, H396P); assay: Phage-display competition binding assay (Kd), ABL1(H396P)
T6 construct: made in house; host or cells: T7 bacteriophage display
Source text: as §1

ABL1(Q252H) = molecular target: T7, ABL1(Q252H) (Homo sapiens, UniProt P00519, Q252H); assay: Phage-display competition binding assay (Kd), ABL1(Q252H)
T7 construct: made in house; host or cells: T7 bacteriophage display
Source text: as §1

| Structure (SMILES) | Kd (ABL1(DKIN)) | Kd (ABL1(E255K)) | other results |
| --- | --- | --- | --- |
| CC(C)(C)c1cc(NC(=O)Nc2ccc(Cl)c(C(F)(F)F)c2)no1 [Compound A1, 1-(5-tent-butylisoxazol-3-yl)-3-(4-chloro-3-(trifluoromethyl)phenyl)urea] | > 10 µM |  |  |
| CC(C)(C)c1cc(NC(=O)Nc2ccc(Br)cc2C(F)(F)F)on1 [Compound A26] | > 10 µM |  |  |
| COc1ccc(NC(=O)Nc2cc(C(C)(C)C)no2)cc1 [Compound A30] | > 10 µM |  |  |
| CC(C)(C)c1cc(NC(=O)Nc2ccc(Cl)cc2)on1 [Compound A32] | > 10 µM |  |  |
| CSc1ccc(NC(=O)Nc2cc(C(C)(C)C)no2)cc1 [Compound A39] | > 10 µM |  |  |
| CC(C)(C)c1cc(NC(=O)Nc2ccc(Br)cc2C(F)(F)F)no1 [Compound A41] | > 10 µM |  |  |
| CC(C)(C)c1cc(NC(=O)Nc2ccc(OCCCc3ccncc3)cc2)no1 [Compound G1, 1-(4-(3-(pyridin-4-yl)propoxy)phenyl)-3-(5-tert-butylisoxazol-3-yl)urea] |  | > 10 µM |  |
| CC(C)(C)c1cc(NC(=O)Nc2ccc(OCCc3ccncc3)cc2)no1 [Compound G22] |  | > 10 µM |  |
| CC(C)(C)c1cc(NC(=O)Nc2ccc(OCCc3ccccn3)cc2)no1 [Compound G27] |  | > 10 µM | Kd (ABL1(T3151)): 1 to 10 µM |
| CC(C)(C)c1csc(NC(=O)Nc2ccc(OCc3ccccc3)cc2)n1 [Compound G49] |  | > 10 µM |  |
| Cc1ccc(-n2nc(C(C)(C)C)cc2NC(=O)Nc2ccc(Br)cc2C(F)(F)F)cc1 [Compound H13] | > 10 µM |  |  |
| Cc1[nH]c(C(=O)Nc2ccc(NC(=O)Nc3cc(C(C)(C)C)on3)cc2)c(C)c1CCC(=O)O [Compound N39] |  | > 10 µM |  |
| CC(C)(C)c1cc(NC(=O)Nc2ccc(NC(=O)Cc3sc(-c4ccc(Cl)cc4)nc3-c3ccccc3)cc2)no1 [Compound N66] | 0.1 to 1 µM |  |  |
| Cc1ccc(C(=O)Nc2ccc(NC(=O)Nc3nc(C(C)(C)C)cs3)cc2)cc1 [Compound N135] |  | > 10 µM | Kd (ABL1(T3151)): > 10 µM |
| CC(C)(C)c1cc(NC(=O)Nc2ccc(NC(=O)c3cccc4nc5cc(O)cc(O)c5cc34)cc2)no1 [Compound N139] |  |  | Kd (ABL1(T3151)): > 10 µM |
| CC(C)(C)c1cc(NC(=O)Nc2ccc(NC(=O)c3c4c(nc5ccccc35)CCCC4)cc2)no1 [Compound N140] |  |  | Kd (ABL1(T3151)): > 10 µM |
| CC(C)(C)c1cc(NC(=O)Nc2ccc(NC(=O)c3ccnc4ccccc34)cc2)no1 [Compound N141] |  | > 10 µM |  |
| Cc1ccc(C(=O)Nc2ccc(NC(=O)Nc3cc(C(C)(C)C)on3)cc2)cn1 [Compound N142] |  | > 10 µM |  |
| CC(C)(C)c1cc(NC(=O)Nc2ccc(NC(=O)c3ccc4ccccc4n3)cc2)no1 [Compound N143] |  | > 10 µM |  |
| CC(C)(C)c1cc(NC(=O)Nc2ccc(NC(=O)c3ccc4cccnc4n3)cc2)no1 [Compound N144] |  | > 10 µM |  |
| Cc1ncccc1C(=O)Nc1ccc(NC(=O)Nc2cc(C(C)(C)C)on2)cc1 [Compound N145] |  | > 10 µM |  |
| CC(C)(C)c1cc(NC(=O)Nc2ccc(C(=O)Nc3nccnc3N)cc2)no1 [Compound N157] |  |  | Kd (ABL1(E274K)): > 10 µM |
| COc1cc2nc(Cl)nc(Nc3ccc(NC(=O)Nc4cc(C(C)(C)C)on4)cc3)c2cc1OC [Compound O1, 1-(4-(2-chloro-6,7-dimethoxyquinazolin-4-ylamino)phenyl)-3-(5-tert-butylisoxazol-3-yl)urea] |  | > 10 µM | Kd (ABL1(Y253F)): > 10 µM; Kd (ABL1(H396P)): > 10 µM; Kd (ABL1(Q252H)): 1 to 10 µM; Kd (ABL1(T3151)): 1 to 10 µM |
| COc1cc2ncnc(Nc3ccc(NC(=O)Nc4cc(C(C)(C)C)on4)cc3)c2cc1OC [Compound O5] | < 0.1 µM | 0.1 to 1 µM | Kd (ABL1(Y253F)): 0.1 to 1 µM; Kd (ABL1(H396P)): 0.1 to 1 µM; Kd (ABL1(Q252H)): 0.1 to 1 µM; Kd (ABL1(T3151)): < 0.1 µM |
| COC(=O)c1cccc(Sc2ncc(NC(=O)Nc3cc(C(C)(C)C)on3)s2)c1 [Compound O8] |  |  | Kd (ABL1(T3151)): 0.1 to 1 µM |
